For data set [1], the system named is extracellular dopamine in the nucleus accumbens. The data set can be described thus: Microdialysis: Topiramate on nicotine-induced increases in nucleus accumbens dopamine (Example 14). The class given is in vivo, rats. The conditions noted are these: Rattus norvegicus, ip, 60 mins pretreatment. The procedure:
These studies were performed using the identical experimental technique we have successfully used in more than 5000 microdialysis studies in rats. Adult male Sprague-Dawley rats (200-300 g, Taconic Farms) were anesthetized with ketamine HCl/xylazine (100 mg/kg), and siliconized guide cannulae are stereotactically implanted in the NACC (1.5 mm anterior to bregma, 1 mm lateral to bregma, and 5.6 mm ventral from the cortical surface, Paxinos and Watson, 2nd edition, 1986) two days prior to the microdialysis experiment.
On the day of the microdialysis study, rats are placed in a bowl at least 2 hrs prior to fraction collection. […]
Ten minute samples are collected within the injection loop (50 μl), injected online and analyzed until three sequential injections differ by less than 10 percent. […]
As stated previously, the first three data points that differ by less than 10% are used as the basal levels, and subsequent measurements made following a challenge drug are converted to a percentage of these values. All subsequent analyses are determined using the ‘percentage of basal’ values.
Locomotor activity was monitored throughout the entire period of study using an Optical Animal Activity Monitor (Bioanalytical Systems, West Lafayette, Ind.), which uses an optical sensor and records activity on both a chart recorder and via computer. […]

Data set [2] concerns Sprague-Dawley rats. Briefly: Gross locomotor activity (Optical Animal Activity Monitor). The class given is in vivo. As to conditions: for nicotine-induced increases in gross locomotor activity: topiramate 25 and 50 mg/kg. An excerpt:
Locomotor activity was monitored throughout the entire period of study using an Optical Animal Activity Monitor (Bioanalytical Systems, West Lafayette, Ind.), which uses an optical sensor and records activity on both a chart recorder and via computer.
Locomotor data was collected with the Optical Animal Activity Monitor (OAAM, BAS, West Lafayette, Ind.). This system is attached to the microdialysis “Raturn®” machines and measures locomotor activity through an optical sensor attached directly to the animal. Output from the Raturn® gives a direct index of locomotor activity.

Data set [3] has as its system mesolimbic extracellular dopamine (DA), NAcc. The data set can be described thus: Microdialysis Example 15: extracellular dopamine after nicotine. It counts as in vivo. The procedure: (§1) Briefly, two days prior to the microdialysis experiments, siliconized guide cannulae were implanted targeting the NAcc (A=+1.5 mm, L=−1.0 mm, V=−5.6 mm). […] Dialysate samples were assayed for monoamine content by microbore high-pressure liquid chromatography (HPLC) coupled with electrochemical detection. […] Peak effects were analyzed with a one-way ANOVA, and post-hoc Bonferroni t-test of topiramate pretreated groups compared to saline pretreated controls provided ANOVA significance at a critical value of 0.05.

For data set [4], the system named is extracellular dopamine in the nucleus accumbens. Briefly: Microdialysis: Topiramate on cocaine-induced increases in nucleus accumbens dopamine. The conditions noted are these: Topiramate 40 mg/kg i.p. 60 minutes prior to cocaine challenge. The class given is in vivo, rats. The method, then: In this example, we examined the effects of Topiramate sixty minutes prior to a cocaine challenge. The Topiramate was administered as an intraperitoneal injection, of 40 mg/kg, 60 minutes prior to a cocaine challenge.

Data set [5] concerns norepinephrine (NE). Briefly: Microdialysis Example 15: extracellular norepinephrine after nicotine. The class given is in vivo. The procedure:
as §1

In data set [6] the test system is serotonin (5-HT). The data set can be described thus: Microdialysis Example 15: extracellular serotonin after nicotine. The class given is in vivo. The method, then: as §1

The results in this text go back to patent publication US6890951B2, “Treatment of addiction and addiction-related behavior” (Brookhaven Science Associates LLC, priority 1998, dated 2005).

Entries after “also recorded” stand apart in the source; their conditions may differ.

For orientation: inhibition means the drop in the measured response relative to a control, in per cent. In the case of `CC1(C)O[C@@H]2[C@@H](CO[C@@]3(COS(N)(=O)=O)OC(C)(C)O[C@@H]23)O1` [Topiramate], the inhibition at 25 mg/kg in data set [1] (topiramate 25 mg/kg ip) is about 50%; in data set [5] (topiramate 25 mg/kg, read-out: inhibition of nicotine-induced increases in NE activity) it was 53%. Moreover, the inhibition at 50 mg/kg in data set [1] (topiramate 50 mg/kg ip) was about 70%; in data set [5] (topiramate 50 mg/kg, read-out: inhibition of nicotine-induced increases in NE activity), 60%. Moreover, in data set [2] (25 and 50 mg/kg), the “gross locomotor activity, topiramate alone” value is recorded as “did not alter gross locomotor activity; also recorded: did not attenuate gross locomotor activity”. In addition, the “nicotine-induced increases in gross locomotor activity” value in data set [2] is listed as “significantly attenuate”; in data set [2] (listed as topiramate), “markedly attenuated”. The “reduction of the NAcc DA response to acute nicotine” value is 67% in data set [3] (topiramate 25 mg/kg) and 83% in data set [3] (topiramate 50 mg/kg). Besides, the “neurochemical sensitization (nicotine-induced NAcc DA release)” value in data set [3] (topiramate 75 mg/kg, animals pretreated with nicotine for 14 days) was “dramatically reduced”. In data set [3] (topiramate alone), the “extracellular basal DA concentrations” value is on record as “did not produce any significant changes”. Also, the “attenuation of cocaine-induced increases in extracellular dopamine” value in data set [4] is given as “approximately 15%”. In addition, in data set [5] (topiramate alone), the “extracellular basal NE concentrations” value was “did not produce any significant changes”. In addition, in data set [6] (topiramate 25 or 50 mg/kg), the “inhibition of nicotine-induced increases in 5-HT activity” value is “not”. Further, the “increase in basal 5-HT activity” value in data set [6] (topiramate alone, non-significant) was determined as 20%.
